Measured values from patent publication US9169255B2, “Caffeinated compounds and compositions for treatment of amyloid diseases and synucleinopathies” (ProteoTech Inc, priority 2011, dated 2015).

Assays:
[1] = Plasma and brain pharmacokinetics in mice after intraperitoneal injection; format: in vivo; conditions: CD-1 female mice, i.p. injection at 50 mg/kg, 7-60 min post-dose; for AUC / Cmax: mouse, plasma, ip
Excerpt: For select compounds in this invention, we have used wild type mice to determine the following plasma pharmacokinetic (PK) parameters: maximal concentration (Cmax), and area under the curve (AUC) as derived from a time versus concentration plot. We have also determined the maximal mouse brain levels, and overall brain exposure over time of select compounds in this invention, expressed as Cmax-brain and AUC-brain, respectively. In order to establish the method, we assessed brain and plasma compound levels over time utilizing 50 mg/kg intraperitoneal (i.p.) injections of 2 control compounds. […] In a typical experiment to assess the compounds in this invention, we used CD-1 female mice with a sample size (n) equal to 4 mice per post-dose time-point (for example, 7, 15, 30, and 60 min post-dose). We chose early time points to assess initial exposure, when we expected plasma and brain exposure to be the high, though we may have missed even higher exposure at earlier time points (between 0 and 7 minutes) since brain and plasma levels were highest in our study at the earliest time point assessed (7 minutes).
For the purpose of these studies, each compound was formulated at 5 mg/mL in 20% polyethylene glycol (PEG)-400 in PBS+0.1% ascorbic acid (w/v). The dose volume was 10 mL/kg of body weight. Mice were administered test compound via intraperitoneal injection, and at about 2-3 minutes before scheduled sacrifice, they were deeply anesthetized with 2.5% avertin. Once anesthetized, whole blood was removed by cardiac puncture, transferred to appropriate EDTA-containing tubes, and immediately chilled on ice. This was followed by complete perfusion of each mouse with >15 ml cold 0.9% saline by cannulation of the left ventricle and clamping of the descending aorta. Brains were harvested, frozen on dry ice and stored at −80° C. for bioanalysis of the test compound. Plasma was extracted from whole blood by standard centrifugation techniques within 1 hour. Compounds were (liquid-liquid) extracted from plasma and brain homogenates using ethyl acetate, followed by HPLC/MS quantitation using methods (i.e. HPLC gradients and mass spectrometry parameters) developed for these novel compounds. All methods established sufficient stability in relevant matrices and solvents, and used internal quantitation controls. Quantitation was achieved using a calibration curve generated with compounds spiked into the appropriate matrix (i.e. 20% PEG-400/PBS+0.1% ascorbic acid). We have established lower limit of quantitative sensitivities of 5-25 ng/ml (plasma) and 5-25 ng/g (brain), sufficient for these studies. Following determination of the brain and plasma concentrations at the various post-dose time points, select plasma (Cmax and AUC) and brain (Cmax-brain and AUC-brain) PK parameters were determined with WinNonLin software (Pharsight Inc). We compared the values determined for the compounds in this invention to the values for the positive control compound that when administered at the same therapeutically relevant route and dose level (i.p. injection at 50 mg/kg) is known to be present in the plasma and the brain at levels sufficient for a biological effect (i.e. reduction of α-synuclein brain levels and improved motor function; data not shown).

[2] = target: T1, A53T-mutant human α-synuclein (Homo sapiens, UniProt P37840, A53T); assay: Thioflavin S-positive aggregates in rotenone-treated BE-M17 cells overexpressing A53T α-synuclein; format: cell-based
T1 construct: expressed in transfected cells; host or cells: BE-M17 human neuroblastoma cells
Excerpt: To test the therapeutic potential of the compounds, a cell-based assay was utilized. In this assay, rotenone is used to induce mitochondrial oxidative stress and cause α-synuclein aggregation. The assay utilizes the binding of the fluorescent dye Thioflavin S to structures with high β-sheet content, including α-synuclein fibrils. Therefore, quantitative assessment of the extent of Thioflavin S-positive staining of fixed cells is used to test the ability of the test compounds to inhibit/prevent or decrease the amount of α-synuclein aggregates relative to cells that were treated with rotenone only. This study is presented in the following examples.
BE-M17 human neuroblastoma cells stably transfected with A53T-mutant human α-synuclein were obtained. Cell culture reagents were obtained from Gibco/Invitrogen, and cells were grown in OPTIMEM supplemented with 10% FBS, Penicillin (100 units/ml), Streptomycin (100 μg/ml) and 500 μg/ml G418 as previously described (Ostrerova-Golts et al., J. Neurosci., 20:6048-6054, 2000).
Thioflavin S is commonly used to detect aggregated protein structures in situ, including in brain tissue (Vallet et al., Acta Neuropathol., 83:170-178, 1992), and cultured cells (Ostrerova-Golts et al., J. Neurosci., 20:6048-6054, 2000), whereas Thioflavin T is often used as an in vitro reagent to analyze the aggregation of soluble proteins into fibrils enriched in β-pleated sheet structures (LeVine III, Prot. Sci., 2:404-410, 1993). Therefore, Thioflavin S histochemistry was used on cultured cells to detect aggregates containing a high degree of β-pleated structures that formed in response to oxidative stress-inducing agents (in this case rotenone) as previously described, with minor modifications (Ostrerova-Golts et al., J. Neurosci., 20:6048-6054, 2000). Briefly, for these studies cells were grown on Poly-D-Lysine coated glass slide chambers at approximately 4.5−5.5×10^4 cells/cm^2. After 16-18 hours, cells were treated with 500 nM or 2 μM rotenone (Sigma) or vehicle (0.05% DMSO) as indicated. Within 15 minutes of rotenone (or vehicle) addition, compounds were added at the indicated concentration, or mock-treatment was performed in which cell culture media only (no compound) was added. Identical treatments were repeated after 48 hours. After an additional 24 hours, cells were fixed for 25 minutes in 3% paraformaldehyde. After a PBS wash and a deionized water wash, the cells were incubated with 0.015% Thioflavin S in 50% ethanol for 25 minutes, washed twice for four minutes in 50% ethanol and twice for five minutes in deionized water and then mounted using an aqueous-based mountant designed to protect against photobleaching. Aggregates that bind to Thioflavin S were detected with a fluorescent microscope using a High Q FITC filter set (480 to 535 nm bandwidth) and a 20× objective lens unless otherwise indicated. Between 8 and 20 (usually 16-18) representative images per condition were selected and imaged using Q Capture software by an experimenter who was blinded to treatment conditions. To assess the amount of Thioflavin S-positive aggregates, the total area per field covered by Thioflavin S-positive inclusions was determined by image analysis and quantitation. […] Spurious, non-cell associated fluorescence was manually removed. Unless indicated otherwise, comparisons between groups were made by comparing mean relative amounts of Thioflavin S-positive inclusions for a given treatment condition (i.e. cells treated with rotenone only versus cells treated with rotenone and test compound at a given concentration). Statistical analyses were performed with GraphPad Prism (GraphPad Inc). Differences between means (two samples) were assessed by the Student's t test. Differences among multiple means were assessed by one-factor ANOVA followed by Dunnett's post hoc test, compared to rotenone only treated cells. […]

Row | AUC-brain [1] | Cmax-brain [1] | AUC [1] | Cmax [1] | reduction of rotenone-induced Thioflavin S-positive aggregates relative to rotenone only-treated cells ([2]; 500 nM rotenone, 500 nM compound) | reduction of rotenone-induced Thioflavin S-positive aggregates relative to rotenone only-treated cells ([2]; 500 nM rotenone, 2 μM compound) | reduction of rotenone-induced Thioflavin S-positive aggregates relative to rotenone only-treated cells ([2]; 2 μM rotenone, 2 μM compound) | reduction of rotenone-induced Thioflavin S-positive aggregates relative to rotenone only-treated cells ([2]; 2 μM rotenone, 5 μM compound) | reduction of rotenone-induced Thioflavin S-positive aggregates relative to rotenone only-treated cells ([2]; 500 nM rotenone, 5 μM compound) | reduction of rotenone-induced Thioflavin S-positive aggregates relative to rotenone only-treated cells ([2]; 2 μM rotenone, 500 nM compound) | Structure (SMILES)
1 | 3,048 min*ng/g | 99.5 ng/g | 2130 ng·h/mL | 3280 ng/mL | – | – | – | – | – | – | Cn1cnc2c1c(=O)n(Cc1ccc(O)c(O)c1)c(=O)n2Cc1ccc(O)c(O)c1 [PD-150, 7-Methyl-1,3-bis(3′,4′-dihydroxy)benzylxanthine]
2 | 2,147 min*ng/g | 59.2 ng/g | 3540 ng·h/mL | 5340 ng/mL | 52% | 84% | 58% | 60% | – | – | Cn1c(=O)n(Cc2ccc(O)c(O)c2)c(=O)c2c1ncn2Cc1ccc(O)c(O)c1 [PD-151, 3-Methyl-1,7-bis(3′,4′-dihydroxybenzyl)xanthine]
3 | – | – | – | – | – | 54% | 79% | – | 55% | 78% | Cn1c(=O)c2c(ncn2Cc2ccc(O)c(O)c2)n(Cc2ccc(O)c(O)c2)c1=O [PD-152]
